Test results taken from patent publication US10954214B2 (Janssen Pharmaceutica NV, priority 2016, dated 2021).

Assays:
[1] = target: full-length MALT1 protein (Strep-MALT1(1-824)-His) (Homo sapiens (Human), UniProt Q9UDY8); experiment: MALT1 Biochemical Protease Assay (Ac-LRSR-AMC substrate); conditions: 10 nM FL MALT1, 200 μM Ac-LRSR-AMC, 4 h at RT; read-out: MALT1_Biochemical activity (Ac-LRSR-amc) IC50
In short: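 Full-length MALT1 pre-incubated with compounds (30 μM to 0.5 nM, 11 threefold steps) for 50 min at RT. After Ac-LRSR-AMC was added, the reaction ran 4 h at RT and AMC fluorescence was read. IC50 and Hill slope from curve fitting against no-enzyme and no-compound controls.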

[2] = system: IL6 secretion by TMD8 ABC-DLBCL cells; experiment: Human IL6 Mesoscale assay (TMD-8); assay type: cell-based; conditions: Homo sapiens, TMD8; TMD-8 cells, 24 h
In short: (§1)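 After 24 h at 37 °C with test compounds (15 μM down to 58.6 nM, 9 twofold steps, 0.3% DMSO), IL6 and IL10 secreted by 100,000 OCI-LY3 or TMD8 cells per well were measured in supernatants with a Mesoscale immunoassay. Data were scaled between DMSO wells (high) and RN486 treatment (low).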

[3] = system: IL10 secretion by TMD8 ABC-DLBCL cells; experiment: Human IL10 Mesoscale assay (TMD-8); assay type: cell-based; conditions: Homo sapiens, TMD8; TMD-8 cells, 24 h
In short: as §1

full-length MALT1 protein (Strep-MALT1(1-824)-His), sequence (Q9UDY8 whole entry): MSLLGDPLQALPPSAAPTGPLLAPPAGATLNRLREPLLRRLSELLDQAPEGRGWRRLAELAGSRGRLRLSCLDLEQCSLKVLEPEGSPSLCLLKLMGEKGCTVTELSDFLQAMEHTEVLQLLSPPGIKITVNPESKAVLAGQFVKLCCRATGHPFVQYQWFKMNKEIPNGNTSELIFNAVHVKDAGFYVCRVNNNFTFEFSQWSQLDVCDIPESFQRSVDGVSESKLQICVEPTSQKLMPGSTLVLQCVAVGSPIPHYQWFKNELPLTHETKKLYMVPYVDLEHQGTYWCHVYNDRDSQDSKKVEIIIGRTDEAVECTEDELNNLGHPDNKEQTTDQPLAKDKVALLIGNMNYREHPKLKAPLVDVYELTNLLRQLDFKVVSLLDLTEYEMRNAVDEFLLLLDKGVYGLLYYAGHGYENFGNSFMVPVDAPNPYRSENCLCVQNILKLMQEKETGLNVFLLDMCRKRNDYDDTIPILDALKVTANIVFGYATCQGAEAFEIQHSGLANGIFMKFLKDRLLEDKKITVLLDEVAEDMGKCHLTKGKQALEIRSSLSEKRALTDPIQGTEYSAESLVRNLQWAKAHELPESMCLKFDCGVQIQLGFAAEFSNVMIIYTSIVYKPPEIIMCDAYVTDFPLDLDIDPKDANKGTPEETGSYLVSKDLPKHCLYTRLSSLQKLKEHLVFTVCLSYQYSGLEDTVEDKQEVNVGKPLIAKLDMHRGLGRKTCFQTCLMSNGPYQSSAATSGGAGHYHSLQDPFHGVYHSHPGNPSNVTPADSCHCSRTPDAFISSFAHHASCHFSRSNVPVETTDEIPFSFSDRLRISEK

SMILES: Cc1cn(-c2nc(C)c(NC(=O)c3cnn(-c4cccc5c(=O)[nH]ccc45)c3C(F)(F)F)cc2Cl)nn1 [Cpd 362, N-(5-chloro-2-methyl-6-(4-methyl-1H-1,2,3-triazol-1-yl)pyridin-3-yl)-1-(1-oxo-1,2-dihydroisoquinolin-5-yl)-5-(trifluoromethyl)-1H-pyrazole-4-carboxamide]
- IC50 [1]: 138 nM
- IC50 [2]: 3470 nM
- IC50 [3]: 1180 nM

SMILES: Cc1nc(-n2nccn2)c(Cl)cc1NC(=O)c1cnn(-c2cnc(C(N)=O)c3sccc23)c1C(F)(F)F [Cpd 393, 4-(4-((5-chloro-2-methyl-6-(2H-1,2,3-triazol-2-yl)pyridin-3-yl)carbamoyl)-5-(trifluoromethyl)-1H-pyrazol-1-yl)thieno[2,3-c]pyridine-7-carboxamide]
- IC50 [1]: 12 nM
- IC50 [2]: 245 nM
- IC50 [3]: 126 nM

SMILES: Cc1nc(-n2nccn2)c(Cl)cc1NC(=O)c1cnn(-c2ccc(F)c3nccn23)c1C(F)(F)F [Cpd 203, N-(5-chloro-2-methyl-6-(2H-1,2,3-triazol-2-yl)pyridin-3-yl)-1-(8-fluoroimidazo[1,2-a]pyridin-5-yl)-5-(trifluoromethyl)-1H-pyrazole-4-carboxamide]
- IC50 [1]: 162 nM
- IC50 [2]: 5620 nM
- IC50 [3]: 2690 nM

SMILES: O=C(Nc1cnc(-n2nccn2)c(Cl)c1)c1cnn(-c2cnc(N3CC[C@@H](O)C3)c3sccc23)c1C(F)(F)F [Cpd 432, (R)—N-(5-chloro-6-(2H-1,2,3-triazol-2-yl)pyridin-3-yl)-1-(7-(3-hydroxypyrrolidin-1-yl)thieno[2,3-c]pyridin-4-yl)-5-(trifluoromethyl)-1H-pyrazole-4-carboxamide]
- IC50 [1]: 98 nM
- IC50 [2]: 933 nM
- IC50 [3]: 363 nM

SMILES: O=C(Nc1cnc(-n2nccn2)c(Cl)c1)c1cnn(-c2cnc(N3CC(O)C3)c3sccc23)c1C(F)(F)F [Cpd 430, N-(5-chloro-6-(2H-1,2,3-triazol-2-yl)pyridin-3-yl)-1-(7-(3-hydroxyazetidin-1-yl)thieno[2,3-c]pyridin-4-yl)-5-(trifluoromethyl)-1H-pyrazole-4-carboxamide]
- IC50 [1]: 13 nM
- IC50 [2]: > 3020 nM
- IC50 [3]: 204 nM

SMILES: N#Cc1cc(NC(=O)c2cnn(-c3cc(Cl)nc4ccccc34)c2C(F)(F)F)cnc1-n1nccn1 [Cpd 220, 1-(2-chloroquinolin-4-yl)-N-(5-cyano-6-(2H-1,2,3-triazol-2-yl)pyridin-3-yl)-5-(trifluoromethyl)-1H-pyrazole-4-carboxamide]
- IC50 [1]: 2140 nM
- IC50 [2]: 851 nM
- IC50 [3]: 468 nM

SMILES: O=C(Nc1cnc(-n2nccn2)c(Cl)c1)c1c(F)nn(-c2cccc3ncccc23)c1C(F)(F)F [Cpd 160, N-(5-chloro-6-(2H-1,2,3-triazol-2-yl)pyridin-3-yl)-3-fluoro-1-(quinolin-5-yl)-5-(trifluoromethyl)-1H-pyrazole-4-carboxamide]
- IC50 [1]: 389 nM
- IC50 [2]: 95 nM
- IC50 [3]: 93 nM

SMILES: Cn1nc(-n2ncc(C(=O)Nc3cnc(-n4nccn4)c(C#N)c3)c2C(F)(F)F)c2cccnc21 [Cpd 265, N-(5-cyano-6-(2H-1,2,3-triazol-2-yl)pyridin-3-yl)-1-(1-methyl-1H-pyrazolo[3,4-b]pyridin-3-yl)-5-(trifluoromethyl)-1H-pyrazole-4-carboxamide]
- IC50 [1]: 166 nM
- IC50 [2]: > 1510 nM
- IC50 [3]: 120 nM

SMILES: Cc1nc2c(-n3ncc(C(=O)Nc4cnc(-n5nccn5)c(C#N)c4)c3C(F)(F)F)cccc2s1 [Cpd 245, N-(5-cyano-6-(2H-1,2,3-triazol-2-yl)pyridin-3-yl)-1-(2-methylbenzo[d]thiazol-4-yl)-5-(trifluoromethyl)-1H-pyrazole-4-carboxamide]
- IC50 [1]: 389 nM
- IC50 [2]: 708 nM
- IC50 [3]: 141 nM

SMILES: NCc1cnnn1-c1ncc(NC(=O)c2cnn(-c3cccc4ncccc34)c2C(F)(F)F)cc1Cl [Cpd 248, N-(6-(5-(aminomethyl)-1H-1,2,3-triazol-1-yl)-5-chloropyridin-3-yl)-1-(quinolin-5-yl)-5-(trifluoromethyl)-1H-pyrazole-4-carboxamide]
- IC50 [1]: 331 nM
- IC50 [2]: 1510 nM
- IC50 [3]: 468 nM

SMILES: O=C(Nc1cncc(-n2nccn2)c1)c1cnn(-c2cccc3c(=O)[nH]ccc23)c1C(F)(F)F [Cpd 363, N-(5-(2H-1,2,3-triazol-2-yl)pyridin-3-yl)-1-(1-oxo-1,2-dihydroisoquinolin-5-yl)-5-(trifluoromethyl)-1H-pyrazole-4-carboxamide]
- IC50 [1]: 26300 nM
- IC50 [2]: > 302 nM
- IC50 [3]: > 302 nM

SMILES: Cc1nc(-n2nccn2)c(Cl)cc1NC(=O)c1cnn(-c2cnc(C#N)c3sccc23)c1C(F)(F)F [Cpd 416, N-(5-chloro-2-methyl-6-(2H-1,2,3-triazol-2-yl)pyridin-3-yl)-1-(7-cyanothieno[2,3-c]pyridin-4-yl)-5-(trifluoromethyl)-1H-pyrazole-4-carboxamide]
- IC50 [1]: 2570 nM
- IC50 [2]: > 15100 nM
- IC50 [3]: > 15100 nM

SMILES: O=C(Nc1cnc(-n2nccn2)c(Cl)c1)c1cnn(-c2ccc(F)c3cccnc23)c1C(F)(F)F [Cpd 261, N-(5-chloro-6-(2H-1,2,3-triazol-2-yl)pyridin-3-yl)-1-(5-fluoroquinolin-8-yl)-5-(trifluoromethyl)-1H-pyrazole-4-carboxamide]
- IC50 [1]: 195 nM
- IC50 [2]: 794 nM
- IC50 [3]: 479 nM

SMILES: CN1C(=O)COc2ccc(NC(=O)c3cnn(-c4cccc5ncccc45)c3C(F)(F)F)cc21 [Cpd 214, N-(4-methyl-3-oxo-3,4-dihydro-2H-benzo[b][1,4]oxazin-6-yl)-1-(quinolin-5-yl)-5-(trifluoromethyl)-1H-pyrazole-4-carboxamide]
- IC50 [1]: 6030 nM
- IC50 [2]: 2040 nM
- IC50 [3]: 2240 nM

SMILES: O=C(Nc1cnc(-n2nccn2)c(Cl)c1)c1cnn(-c2c(F)ccc3nccn23)c1C(F)(F)F [Cpd 205, N-(5-chloro-6-(2H-1,2,3-triazol-2-yl)pyridin-3-yl)-1-(6-fluoroimidazo[1,2-a]pyridin-5-yl)-5-(trifluoromethyl)-1H-pyrazole-4-carboxamide]
- IC50 [1]: 195 nM
- IC50 [2]: > 15100 nM
- IC50 [3]: 1900 nM

SMILES: N#Cc1cc(NC(=O)c2cnn(-c3cccc4nccnc34)c2C(F)(F)F)cnc1-n1nccn1 [Cpd 105, N-(5-Cyano-6-(2H-1,2,3-triazol-2-yl)pyridin-3-yl)-1-(quinoxalin-5-yl)-5-(trifluoromethyl)-1H-pyrazole-4-carboxamid]
- IC50 [1]: 58 nM
- IC50 [2]: 851 nM
- IC50 [3]: 813 nM

SMILES: Cn1ccc2c(-n3ncc(C(=O)Nc4cnc(-n5nccn5)c(Cl)c4)c3C(F)(F)F)cccc2c1=O [Cpd 226, N-(5-chloro-6-(2H-1,2,3-triazol-2-yl)pyridin-3-yl)-1-(2-methyl-1-oxo-1,2-dihydroisoquinolin-5-yl)-5-(trifluoromethyl)-1H-pyrazole-4-carboxamide]
- IC50 [1]: 1200 nM
- IC50 [2]: 257 nM
- IC50 [3]: 93 nM

SMILES: O=C(Nc1ccnc(C(F)(F)F)c1)c1cnn(-c2cccc3nccn23)c1C(F)(F)F [Cpd 208, 1-(imidazo[1,2-a]pyridin-5-yl)-5-(trifluoromethyl)-N-(2-(trifluoromethyl)pyridin-4-yl)-1H-pyrazole-4-carboxamide]
- IC50 [1]: 316 nM
- IC50 [2]: > 15100 nM
- IC50 [3]: 8710 nM

SMILES: O=C(Nc1cnc(-n2nccn2)c(Cl)c1)c1cnn(-c2cccc3nccc(C(F)F)c23)c1C(F)(F)F [Cpd 396, N-(5-chloro-6-(2H-1,2,3-triazol-2-yl)pyridin-3-yl)-1-(4-(difluoromethyl)quinolin-5-yl)-5-(trifluoromethyl)-1H-pyrazole-4-carboxamide]
- IC50 [1]: 447 nM
- IC50 [2]: 51 nM
- IC50 [3]: 39 nM

SMILES: O=C(Nc1cnc(-c2ncc[nH]2)c(Cl)c1)c1cnn(-c2cncc3ccccc23)c1C(F)(F)F [Cpd 104, N-(5-chloro-6-(1H-imidazol-2-yl)pyridin-3-yl)-1-(isoquinolin-4-yl)-5-(trifluoromethyl)-1H-pyrazole-4-carboxamide]
- IC50 [1]: 204 nM
- IC50 [2]: > 15000 nM
- IC50 [3]: > 15000 nM

SMILES: Cn1ncc(-c2ncc(NC(=O)c3cnn(-c4cccc5ncccc45)c3C(F)(F)F)cc2C#N)n1 [Cpd 257, N-(5-cyano-6-(2-methyl-2H-1,2,3-triazol-4-yl)pyridin-3-yl)-1-(quinolin-5-yl)-5-(trifluoromethyl)-1H-pyrazole-4-carboxamide]
- IC50 [1]: 234 nM
- IC50 [2]: > 3200 nM
- IC50 [3]: 646 nM

SMILES: N#Cc1cc(NC(=O)c2cnn(-c3cc(N)nc4ccccc34)c2C(F)(F)F)cnc1-n1nccn1 [Cpd 329, 1-(2-aminoquinolin-4-yl)-N-(5-cyano-6-(2H-1,2,3-triazol-2-yl)pyridin-3-yl)-5-(trifluoromethyl)-1H-pyrazole-4-carboxamide]
- IC50 [1]: 661 nM
- IC50 [2]: 1660 nM
- IC50 [3]: 1440 nM

SMILES: N#Cc1cc(NC(=O)c2cnn(-c3ccnc4ccncc34)c2C(F)(F)F)cnc1-n1nccn1 [Cpd 223, N-(5-cyano-6-(2H-1,2,3-triazol-2-yl)pyridin-3-yl)-1-(1,6-naphthyridin-4-yl)-5-(trifluoromethyl)-1H-pyrazole-4-carboxamide]
- IC50 [1]: 1700 nM
- IC50 [2]: 759 nM
- IC50 [3]: 1180 nM

SMILES: N#Cc1ncc(-n2ncc(C(=O)Nc3cnc(-n4nccn4)c(Cl)c3)c2C(F)(F)F)c2ccccc12 [Cpd 414, N-(5-chloro-6-(2H-1,2,3-triazol-2-yl)pyridin-3-yl)-1-(1-cyanoisoquinolin-4-yl)-5-(trifluoromethyl)-1H-pyrazole-4-carboxamide]
- IC50 [1]: 19 nM
- IC50 [2]: > 15100 nM
- IC50 [3]: 955 nM
